Data: patent EP4703354A1, “COMPOUND AS CCR6 ANTAGONIST, AND PHARMACEUTICAL COMPOSITION AND USE THEREOF” (Wuhan Createrna Science and Technology Co.,Ltd., priority 2023, dated 2024)

Tests used:
[1] = in vitro liver microsome metabolic stability, human; assay type: in vitro ADME; conditions: Human liver microsomes, 37°C
Method in brief: (§1)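 Test compound at 1 µM final (100 µM working solution diluted 1:100) incubated at 37°C with liver microsomes in pH 7.4 phosphate buffer with NADP/G6P/G6PDH/MgCl2 regenerating system; sampled 0–30 min, LC-MS/MS vs internal standard. T1/2 = 0.693/k from remaining-fraction decay.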

[2] = in vitro liver microsome metabolic stability, beagle dog; assay type: in vitro ADME; conditions: Beagle dog liver microsomes, 37°C
Method in brief: as §1

[3] = molecular target: T1, human CXCR2 (Homo sapiens, UniProt P25025); assay: human CXCR2 calcium flux activity (FLIPR, HEK293 cells stably expressing human CXCR2, IL-8 stimulation); assay type: cell-based; conditions: HEK293 cells stably expressing human CXCR2, EC80 human IL-8; read-out: CXCR2 inhibitory activity, IC50
T1 construct: expressed in transfected cells; host or cells: HEK293
T1 sequence (P25025 1-360): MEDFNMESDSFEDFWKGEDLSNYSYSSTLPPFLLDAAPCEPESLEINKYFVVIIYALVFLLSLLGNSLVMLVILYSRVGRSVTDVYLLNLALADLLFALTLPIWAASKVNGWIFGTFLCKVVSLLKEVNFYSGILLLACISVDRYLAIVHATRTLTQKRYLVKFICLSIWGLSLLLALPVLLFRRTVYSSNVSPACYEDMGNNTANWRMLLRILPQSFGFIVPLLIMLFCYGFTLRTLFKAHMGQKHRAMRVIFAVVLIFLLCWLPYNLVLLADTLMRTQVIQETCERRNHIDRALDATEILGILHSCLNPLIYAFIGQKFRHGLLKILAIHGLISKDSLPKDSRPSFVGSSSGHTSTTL
Method: The activity of the compounds was evaluated using HEK293 cells stably expressing human CXCR2 via the FLIPR platform. A 384-well black cell culture plate (Greiner, 781946) was used, with a seeding density of 20,000 cells/well, and incubated overnight at 37°C in a 5% CO2 incubator. The culture medium in the cell plate wells was removed, and 20 µL of Fluo-4 Direct™ Calcium Assay Buffer (Invitrogen, F10471, Component C), 20 µL of 2× Fluo-4 Direct™ Calcium Assay Reagent (Invitrogen, F10471, Component A) working solution, and 10 µL of 6× test compound working solution were sequentially added to each well. The cell plate was incubated in a 37 °C, 5% CO2 incubator for 50 min, followed by a 10 min incubation at room temperature. Additionally, a 6×EC80 human IL-8 (Sigma, SRP3311) working solution was prepared. After the incubation was completed, 10 µL/well of the 6×EC80 human IL-8 working solution was transferred to the corresponding cell wells using a FLIPR instrument, and the fluorescence signal changes at an excitation wavelength of 494 nm and an emission wavelength of 516 nm were recorded over 130 s. The difference between the maximum fluorescence signal (RFUMax) and the minimum fluorescence signal (RFUMin) was used as the output signal. The compound inhibition rate and the log value of the compound concentration were calculated, and a four-parameter fitting analysis was performed using GraphPad Prism 8 software to obtain the IC50 value of the test compound. Table 1. Inhibitory activity data of compounds against CCR6 and CXCR2

[4] = in vitro liver microsome metabolic stability, rat; assay type: in vitro ADME; conditions: Rat liver microsomes, 37°C
Method in brief: as §1

| Compound | Liver microsome T1-2 (min) Human [1] [min] | Liver microsome T1-2 (min) Beagle dog [2] [min] | IC50 [3] [nM] | Liver microsome T1-2 (min) Rat [4] [min] |
| --- | --- | --- | --- | --- |
| CN(C)C(=O)c1nccc(Nc2c(N[C@@H](C#CC3CCC3)[C@]3(C)CC(F)(F)CO3)c(=O)c2=O)c1O (single isomer, unassigned) [110A] | 641.85 | 358.15 | 297 | 292.82 |
| CN(C)C(=O)c1nccc(Nc2c(N[C@@H](c3nc(Cl)ccc3F)[C@@]3(C)CC(F)(F)CO3)c(=O)c2=O)c1O [068B, 4-((2-(((S)-(6-chloro-3-fluoropyridin-2-yl)((R)-4,4-difluoro-2-methyltetrahydrofuran-2-yl)methyl)amino)-3,4-dioxocyclobut-1-en-1-yl)amino)-3-hydroxy-N,N-dimethylpicolinamide] | 995.19 | 199.34 | 7630 | 570.62 |
| Cc1cc(F)cnc1[C@H](Nc1c(Nc2ccnc(C(=O)N(C)C)c2O)c(=O)c1=O)[C@]1(C)CC(F)(F)CO1 [093A, 4-((2-(((S)-((S)-4,4-difluoro-2-methyltetrahydrofuran-2-yl)(5-fluoro-3-methylpyridin-2-yl)methyl)amino)-3,4-dioxocyclobut-1-en-1-yl)amino)-3-hydroxy-N,N-dimethylpicolinamide] | 359.51 | 104.27 | > 100000 | 110.15 |
| CN(C)C(=O)c1nccc(Nc2c(N[C@@H](c3cccc(Cl)n3)C3(C)CCCC3)c(=O)c2=O)c1O [compound 003, (R)-4-((2-(((6-chloropyridin-2-yl)(1-methylcyclopentyl)methyl)amino)-3,4-dioxocyclobut-1-en-1-yl)amino)-3-hydroxy-N,N-dimethylpicolinamide] | 511.95 |  | 2210 | 93.67 |
| CN(C)C(=O)c1nccc(Nc2c(N[C@@H](c3ccc(F)cn3)C3(C)CCCC3)c(=O)c2=O)c1O [compound 005, (R)-4-((2-(((5-fluoropyridin-2-yl)(1-methylcyclopentyl)methyl)amino)-3,4-dioxocyclobut-1-en-1-yl)amino)-3-hydroxy-N,N-dimethylpicolinamide] | 431.17 | 254.48 | 1250 | 101.29 |
| CN(C)C(=O)c1nccc(Nc2c(N[C@@H](c3ncc(F)cc3F)C3(C)CCCC3)c(=O)c2=O)c1O [compound 009, (R)-4-((2-(((3,5-difluoropyridin-2-yl)(1-methylcyclopentyl)methyl)amino)-3,4-dioxocyclobut-1-en-1-yl)amino)-3-hydroxy-N,N-dimethylpicolinamide] | 225.37 | 89.42 | 2430 | 62.30 |
| Cc1cccnc1[C@H](Nc1c(Nc2ccc(Cl)c(C(=O)N(C)C)c2O)c(=O)c1=O)C1(C)CCCC1 [compound 063, (R)-6-chloro-2-hydroxy-N,N-dimethyl-3-((2-(((1-methylcyclopentyl)(3-methylpyridin-2-yl)methyl)amino)-3,4-dioxocyclobut-1-en-1-yl)amino)benzamide] | 296.47 | 202.25 | 15300 | 20.71 |
| CN(C)C(=O)c1nccc(Nc2c(N[C@@H](c3cccc(CF)n3)C3(C)CCCC3)c(=O)c2=O)c1O [compound 108, (R)-4-((2-(((6-(fluoromethyl)pyridin-2-yl)(1-methylcyclopentyl)methyl)amino)-3,4-dioxocyclobut-1-en-1-yl)amino)-3-hydroxy-N,N-dimethylpicolinamide] | 458.54 | 63.57 | 740 | 124.28 |
| CC#C[C@H](Nc1c(Nc2ccnc(C(=O)N(C)C)c2O)c(=O)c1=O)C1(C)CCCC1 [compound 113, (R)-3-hydroxy-N, N-dimethyl-4-((2-((1-(1-methylcyclopentyl)but-2-yn-1-yl)amino)-3,4-dioxocyclobut-1-en-1-yl)amino)picolinamide] | 577.09 | 520.59 | 1480 | 124.51 |
| CC#C[C@H](Nc1c(Nc2ccc(Cl)c(C(=O)N(C)C)c2O)c(=O)c1=O)C1(C)CCCC1 [compound 114, (R)-6-chloro-2-hydroxy-N, N-dimethyl-3-((2-((1-(1-methylcyclopentyl)but-2-yn-1-yl)amino)-3,4-dioxocyclobut-1-en-1-yl)amino)benzamide] | 392.83 | 489.6 | 1450 | 120.25 |
| CN(C)C(=O)c1nccc(Nc2c(N[C@@H](C#CC3CC3)C3(C)CCCC3)c(=O)c2=O)c1O [compound 115, (R)-4-((2-((3-cyclopropyl-1-(1-methylcyclopentyl)prop-2-yn-1-yl)amino)-3,4-dioxocyclobut-1-en-1-yl)amino)-3-hydroxy-N,N-dimethylpicolinamide] | 247.27 | 1110.44 | 527 | 114.18 |
